What was measured:
Assay type in all cases: cell-based
[1] = test system: hepatocellular carcinoma cell lines; assay: Screening against HCC cell lines
Procedure: The target compounds were tested against hepatocellular carcinoma cell lines. Compounds 1j. 13a. 13b. 13c. […] The mean inhibition percentage values are illustrated in Table 9.
Two HCC cell lines (Hep3B and HepG2) were used for screening the antiproliferative activity of the synthesized compounds. The cell lines were obtained from the European Collection of Cell Cultures (ECACC, UK) and maintained in Dulbecco's Modified Eagle Medium (DMEM: Sigma-Aldrich) supplemented with 10% fetal bovine serum (FBS) and 1% penicillin/streptomycin and incubated at 37° C. in a 5% CO2 air atmosphere. In addition, WI-38 normal cell line was used to investigate the safety of these compounds.
MTT assay was conducted to calculate the IC50 of the compounds following the reported procedure . Briefly, the cells were seeded in 96-well tissue culture plates with a density of 5×10^4 cells/well and incubated overnight at 37° C. in a 5% CO2 air atmosphere. After that, cells were treated with the newly synthesized compounds or sorafenib as a positive control. DMSO was used as a negative control. After 48 h, the media were aspirated, and replaced with media containing 0.5 mg/mL of MTT tetrazolium dye (Sigma-Aldrich) for 2 h at 37° C. Finally, the media were removed and 200 μL of DMSO was added to solubilize the formazan crystals. Absorbance was then measured at 570 nm using Varioskan Flash multimode plate reader (Thermo Scientific, Massachusetts, USA).

M14 = assay: NCI-60 cell line panel: M14; conditions: Melanoma; for IC50: Homo sapiens; for TGI: total growth inhibition
Procedure: (§1) It was carried out at the NCI, Bethesda, MD, USA, utilizing their standard protocol.

SK-OV-3 = assay: NCI-60 cell line panel: SK-OV-3; conditions: Ovarian Cancer; for IC50: Homo sapiens; for TGI: total growth inhibition
Procedure: as §1

NCI-H226 = assay: NCI-60 cell line panel: NCI-H226; conditions: Non-Small Cell Lung Cancer; for IC50: Homo sapiens; for TGI: total growth inhibition
Procedure: as §1

BT-549 = assay: NCI-60 cell line panel: BT-549; conditions: Breast Cancer; for TGI: total growth inhibition; for IC50: Homo sapiens
Procedure: as §1

MCF7 = assay: NCI-60 cell line panel: MCF7; conditions: Breast Cancer; for TGI: total growth inhibition; for IC50: Homo sapiens
Procedure: as §1

ACHN = assay: NCI-60 cell line panel: ACHN; conditions: Renal Cancer; for IC50: Homo sapiens; for TGI: total growth inhibition
Procedure: as §1

SF-539 = assay: NCI-60 cell line panel: SF-539; conditions: CNS Cancer; for TGI: total growth inhibition; for IC50: Homo sapiens
Procedure: as §1

RXF 393 = assay: NCI-60 cell line panel: RXF 393; conditions: Renal Cancer; for IC50: Homo sapiens; for TGI: total growth inhibition
Procedure: as §1

LOX IMVI = assay: NCI-60 cell line panel: LOX IMVI; conditions: Melanoma; for IC50: Homo sapiens; for TGI: total growth inhibition
Procedure: as §1

UO-31 = assay: NCI-60 cell line panel: UO-31; parameters: TGI: unit not given here; conditions: Renal Cancer; for IC50: Homo sapiens; for TGI: total growth inhibition
Procedure: as §1

MDA-MB-231/ATCC = assay: NCI-60 cell line panel: MDA-MB-231/ATCC; conditions: Breast Cancer; for TGI: total growth inhibition; for IC50: Homo sapiens
Procedure: as §1

PC-3 = assay: NCI-60 cell line panel: PC-3; conditions: Prostate Cancer; for IC50: Homo sapiens; for TGI: total growth inhibition
Procedure: as §1

OVCAR-5 = assay: NCI-60 cell line panel: OVCAR-5; conditions: Ovarian Cancer; for IC50: Homo sapiens; for TGI: total growth inhibition
Procedure: as §1

786-0 = assay: NCI-60 cell line panel: 786-0; conditions: Renal Cancer; for IC50: Homo sapiens; for TGI: total growth inhibition
Procedure: as §1

A549/ATCC = assay: NCI-60 cell line panel: A549/ATCC; conditions: Non-Small Cell Lung Cancer; for IC50: Homo sapiens; for TGI: total growth inhibition
Procedure: as §1

SR = assay: NCI-60 cell line panel: SR; conditions: Leukemia; for IC50: Homo sapiens; for TGI: total growth inhibition
Procedure: as §1

SW-620 = assay: NCI-60 cell line panel: SW-620; conditions: Colon Cancer; for TGI: total growth inhibition; for IC50: Homo sapiens
Procedure: as §1

NCI-H522 = assay: NCI-60 cell line panel: NCI-H522; parameters: TGI: unit not given here; conditions: Non-Small Cell Lung Cancer; for IC50: Homo sapiens; for TGI: total growth inhibition
Procedure: as §1

A498 = assay: NCI-60 cell line panel: A498; conditions: Renal Cancer; for IC50: Homo sapiens; for TGI: total growth inhibition
Procedure: as §1

K-562 = assay: NCI-60 cell line panel: K-562; parameters: TGI: unit not given here; conditions: for IC50: Homo sapiens, K562, Leukemia; for TGI: Leukemia, total growth inhibition
Procedure: as §1

MDA-MB-435 = assay: NCI-60 cell line panel: MDA-MB-435; parameters: TGI: unit not given here; conditions: Melanoma; for IC50: Homo sapiens; for TGI: total growth inhibition
Procedure: as §1

DU-145 = assay: NCI-60 cell line panel: DU-145; conditions: Prostate Cancer; for IC50: Homo sapiens; for TGI: total growth inhibition
Procedure: as §1

NCI-H23 = assay: NCI-60 cell line panel: NCI-H23; conditions: Non-Small Cell Lung Cancer; for IC50: Homo sapiens; for TGI: total growth inhibition
Procedure: as §1

NCI/ADR-RES = assay: NCI-60 cell line panel: NCI/ADR-RES; parameters: TGI: unit not given here; conditions: Ovarian Cancer; for IC50: Homo sapiens; for TGI: total growth inhibition
Procedure: as §1

SN12C = assay: NCI-60 cell line panel: SN12C; conditions: Renal Cancer; for IC50: Homo sapiens; for TGI: total growth inhibition
Procedure: as §1

HCC-2998 = assay: NCI-60 cell line panel: HCC-2998; conditions: Colon Cancer; for TGI: total growth inhibition; for IC50: Homo sapiens
Procedure: as §1

SK-MEL-28 = assay: NCI-60 cell line panel: SK-MEL-28; conditions: Melanoma; for IC50: Homo sapiens; for TGI: total growth inhibition
Procedure: as §1

SMILES: CCN1CCN(c2ccc(NC(=O)Nc3ccc(-c4cc(C(=O)NC)c5ncccc5n4)cc3)cc2C(F)(F)F)CC1 [Compound 13c, 2-(4-(3-(4-(4-Ethylpiperazin-1-yl)-3-(trifluoromethyl)phenyl)ureido)phenyl)-N-methyl-1,5-naphthyridine-4-carboxamide]
- inhibition activity against hepatocellular carcinoma cell lines compared with sorafenib [1]: higher inhibition activity than sorafenib
- IC50 (M14): 400 nM
- TGI (M14): 1.05 µM
- IC50 (SK-OV-3): 3.48 µM
- TGI (SK-OV-3): 7.5 µM
- IC50 (NCI-H226): 2.7 µM
- TGI (NCI-H226): 6.36 µM
- TGI (BT-549): 5.67 µM
- IC50 (BT-549): 2.78 µM
- TGI (MCF7): 0.61 µM
- IC50 (MCF7): 290 nM
- IC50 (ACHN): 2390 nM
- TGI (ACHN): 4.73 µM
- TGI (SF-539): 4.57 µM
- IC50 (SF-539): 2300 nM
- IC50 (RXF 393): 490 nM
- TGI (RXF 393): 1.66 µM
- IC50 (LOX IMVI): 670 nM
- TGI (LOX IMVI): 2.66 µM
- IC50 (UO-31): 2710 nM
- TGI (UO-31): 5.14
- TGI (MDA-MB-231/ATCC): 5.25 µM
- IC50 (MDA-MB-231/ATCC): 2780 nM
- IC50 (PC-3): 2880 nM
- TGI (PC-3): 6.03 µM
- IC50 (OVCAR-5): 2820 nM
- TGI (OVCAR-5): 5.23 µM
- IC50 (786-0): 300 nM
- TGI (786-0): 0.58 µM
- IC50 (A549/ATCC): 470 nM
- TGI (A549/ATCC): 1.3 µM
- IC50 (SR): 670 nM
- TGI (SR): > 18 µM
- TGI (SW-620): 0.62 µM
- IC50 (SW-620): 310 nM
- IC50 (NCI-H522): 3.23 µM
- TGI (NCI-H522): 6.40
- IC50 (A498): 2.74 µM
- TGI (A498): 5.31 µM
- IC50 (K-562): 660 nM
- TGI (K-562): >18.0
- IC50 (MDA-MB-435): 270 nM
- TGI (MDA-MB-435): 0.56
- IC50 (DU-145): 2230 nM
- TGI (DU-145): 4.9 µM
- IC50 (NCI-H23): 2680 nM
- TGI (NCI-H23): 5.68 µM
- IC50 (NCI/ADR-RES): 1780 nM
- TGI (NCI/ADR-RES): 8.09
- IC50 (SN12C): 2770 nM
- TGI (SN12C): 5.3 µM
- TGI (HCC-2998): 5.31 µM
- IC50 (HCC-2998): 2830 nM
- IC50 (SK-MEL-28): 320 nM
- TGI (SK-MEL-28): 0.58 µM

SMILES: CCN1CCN(c2ccc(NC(=O)Nc3ccc(-c4cc(C(=O)NC(C)C)c5ncccc5n4)cc3)cc2C(F)(F)F)CC1 [Compound 13f, 2-(4-(3-(4-(4-Ethylpiperazin-1-yl)-3-(trifluoromethyl)phenyl)ureido)phenyl)-N-isopropyl-1,5-naphthyridine-4-carboxamide]
- inhibition activity against hepatocellular carcinoma cell lines compared with sorafenib [1]: higher inhibition activity than sorafenib
- IC50 (M14): 720 nM
- TGI (M14): 1.9 µM
- IC50 (SK-OV-3): 5.33 µM
- TGI (SK-OV-3): 1.08 µM
- IC50 (NCI-H226): 5.02 µM
- TGI (NCI-H226): 12.5 µM
- TGI (BT-549): 9.57 µM
- IC50 (BT-549): 4.83 µM
- TGI (MCF7): 1.5 µM
- IC50 (MCF7): 630 nM
- IC50 (ACHN): 1020 nM
- TGI (ACHN): 3.47 µM
- TGI (SF-539): 1.02 µM
- IC50 (SF-539): 530 nM
- IC50 (RXF 393): 650 nM
- TGI (RXF 393): 1.73 µM
- IC50 (LOX IMVI): 560 nM
- TGI (LOX IMVI): 1.05 µM
- IC50 (UO-31): 2180 nM
- TGI (UO-31): 6.81
- TGI (MDA-MB-231/ATCC): 1.18 µM
- IC50 (MDA-MB-231/ATCC): 610 nM
- IC50 (PC-3): 760 nM
- TGI (PC-3): 2.1 µM
- IC50 (OVCAR-5): 1600 nM
- TGI (OVCAR-5): 6.09 µM
- IC50 (786-0): 500 nM
- TGI (786-0): 1.03 µM
- IC50 (A549/ATCC): 1140 nM
- TGI (A549/ATCC): 5.77 µM
- IC50 (SR): 1050 nM
- TGI (SR): 12.1 µM
- TGI (SW-620): 1.26 µM
- IC50 (SW-620): 640 nM
- IC50 (NCI-H522): 3.52 µM
- TGI (NCI-H522): 8.43
- IC50 (A498): 5.11 µM
- TGI (A498): 9.7 µM
- IC50 (K-562): 1000 nM
- TGI (K-562): >34.5
- IC50 (MDA-MB-435): 650 nM
- TGI (MDA-MB-435): 1.31
- IC50 (DU-145): 750 nM
- TGI (DU-145): 1.58 µM
- IC50 (NCI-H23): 2050 nM
- TGI (NCI-H23): 7.27 µM
- IC50 (NCI/ADR-RES): 3660 nM
- TGI (NCI/ADR-RES): 10.00
- IC50 (SN12C): 670 nM
- TGI (SN12C): 1.38 µM
- TGI (HCC-2998): 5.09 µM
- IC50 (HCC-2998): 1440 nM
- IC50 (SK-MEL-28): 750 nM
- TGI (SK-MEL-28): 1.85 µM
